Conditions: Liquid, Vibrating tube method

CC(C)CCCCCCCOC(=O)c1ccccc1C(=O)OCCCCCCCC(C)C
Conditions	mass density [kg/m3]
283.15 K, 100 kPa	974.5
283.15 K, 200 kPa	974.5
283.15 K, 400 kPa	974.6
283.15 K, 600 kPa	974.7
283.15 K, 800 kPa	974.9
283.15 K, 1010 kPa	975
283.15 K, 2000 kPa	975.5
283.15 K, 3020 kPa	976
283.15 K, 4000 kPa	976.6
283.15 K, 5000 kPa	977.1
283.15 K, 6000 kPa	977.7
283.15 K, 6980 kPa	978.2
283.15 K, 8010 kPa	978.7
283.15 K, 9020 kPa	979.3
283.15 K, 10030 kPa	979.8
283.15 K, 15000 kPa	982.4
283.15 K, 19970 kPa	985
283.15 K, 25030 kPa	987.3
283.15 K, 29980 kPa	989.8
283.15 K, 35030 kPa	992.1
283.15 K, 40000 kPa	994.5
283.15 K, 45030 kPa	996.6
283.15 K, 49980 kPa	998.8
283.15 K, 55030 kPa	1000.9
283.15 K, 59990 kPa	1002.6
283.15 K, 64990 kPa	1005.1
288.15 K, 100 kPa	970.7
288.15 K, 200 kPa	970.8
288.15 K, 420 kPa	970.9
288.15 K, 600 kPa	971
288.15 K, 790 kPa	971.1
288.15 K, 1000 kPa	971.2
288.15 K, 1990 kPa	971.7
288.15 K, 3020 kPa	972.3
288.15 K, 4010 kPa	972.9
288.15 K, 5000 kPa	973.4
288.15 K, 6010 kPa	974
288.15 K, 7020 kPa	974.5
288.15 K, 7980 kPa	975
288.15 K, 9000 kPa	975.5
288.15 K, 10000 kPa	976.1
288.15 K, 14990 kPa	978.7
288.15 K, 19970 kPa	981.4
288.15 K, 25000 kPa	983.8
288.15 K, 30000 kPa	986.4
288.15 K, 34990 kPa	988.8
288.15 K, 40020 kPa	991.1
288.15 K, 45000 kPa	993.3
288.15 K, 49980 kPa	995.7
288.15 K, 54980 kPa	997.7
288.15 K, 60000 kPa	999.9
288.15 K, 65000 kPa	1002
293.15 K, 100 kPa	967
293.15 K, 200 kPa	967.1
293.15 K, 400 kPa	967.2
293.15 K, 630 kPa	967.3
293.15 K, 790 kPa	967.4
293.15 K, 1000 kPa	967.5
293.15 K, 2010 kPa	968.1
293.15 K, 3020 kPa	968.7
293.15 K, 4020 kPa	969.2
293.15 K, 4970 kPa	969.8
293.15 K, 5980 kPa	970.3
293.15 K, 7020 kPa	970.9
293.15 K, 8000 kPa	971.5
293.15 K, 9020 kPa	972
293.15 K, 10010 kPa	972.6
293.15 K, 15010 kPa	975.2
293.15 K, 20000 kPa	977.9
293.15 K, 25030 kPa	980.5
293.15 K, 30020 kPa	983
293.15 K, 35030 kPa	985.4
293.15 K, 40010 kPa	987.8
293.15 K, 44980 kPa	990.1
293.15 K, 50020 kPa	992.4
293.15 K, 55020 kPa	994.6
293.15 K, 60020 kPa	996.8
293.15 K, 65000 kPa	998.9
298.15 K, 100 kPa	963.4
298.15 K, 200 kPa	963.4
298.15 K, 410 kPa	963.6
298.15 K, 620 kPa	963.7
298.15 K, 820 kPa	963.8
298.15 K, 1000 kPa	963.9
298.15 K, 2020 kPa	964.5
298.15 K, 3040 kPa	965
298.15 K, 4030 kPa	965.7
298.15 K, 4980 kPa	966.2
298.15 K, 6070 kPa	966.8
298.15 K, 7020 kPa	967.3
298.15 K, 8040 kPa	967.9
298.15 K, 9040 kPa	968.5
298.15 K, 10030 kPa	969
298.15 K, 15010 kPa	971.7
298.15 K, 19990 kPa	974.4
298.15 K, 25000 kPa	977
298.15 K, 30020 kPa	979.6
298.15 K, 35000 kPa	982.1
298.15 K, 40020 kPa	984.5
298.15 K, 44970 kPa	986.9
298.15 K, 49990 kPa	989.2
298.15 K, 54970 kPa	991.4
298.15 K, 60000 kPa	993.7
298.15 K, 65020 kPa	995.8
303.15 K, 100 kPa	959.7
303.15 K, 200 kPa	959.8
303.15 K, 400 kPa	959.9
303.15 K, 580 kPa	960
303.15 K, 800 kPa	960.2
303.15 K, 1000 kPa	960.3
303.15 K, 2000 kPa	960.9
303.15 K, 2990 kPa	961.4
303.15 K, 4000 kPa	962
303.15 K, 5000 kPa	962.6
303.15 K, 6000 kPa	963.2
303.15 K, 7000 kPa	963.8
303.15 K, 7980 kPa	964.3
303.15 K, 9000 kPa	964.9
303.15 K, 10020 kPa	965.5
303.15 K, 14970 kPa	968.2
303.15 K, 20010 kPa	971
303.15 K, 25030 kPa	973.6
303.15 K, 30020 kPa	976.3
303.15 K, 35000 kPa	978.8
303.15 K, 40000 kPa	981.2
303.15 K, 45000 kPa	983.6
303.15 K, 50010 kPa	986
303.15 K, 54980 kPa	988.3
303.15 K, 60000 kPa	990.5
303.15 K, 64990 kPa	992.7
308.15 K, 100 kPa	956.2
308.15 K, 200 kPa	956.2
308.15 K, 410 kPa	956.4
308.15 K, 610 kPa	956.5
308.15 K, 800 kPa	956.6
308.15 K, 1000 kPa	956.7
308.15 K, 2010 kPa	957.3
308.15 K, 3020 kPa	957.9
308.15 K, 4000 kPa	958.5
308.15 K, 5000 kPa	959.1
308.15 K, 6000 kPa	959.7
308.15 K, 7020 kPa	960.3
308.15 K, 8000 kPa	960.8
308.15 K, 9020 kPa	961.4
308.15 K, 10000 kPa	962
308.15 K, 15010 kPa	964.8
308.15 K, 19990 kPa	967.6
308.15 K, 25000 kPa	970.3
308.15 K, 30010 kPa	973
308.15 K, 35000 kPa	975.5
308.15 K, 39990 kPa	978
308.15 K, 44990 kPa	980.4
308.15 K, 50010 kPa	982.9
308.15 K, 55000 kPa	985.2
308.15 K, 60000 kPa	987.4
308.15 K, 65000 kPa	989.7
